Among the test systems are CCRF-CEM; DLD-1; DMS-114; DMS-273; HCT-15; HOP-62; LXFL 529; MOLT-4; NCI-H226; OVCAR-3; SK-MEL-2; SK-MEL-5; SN12C; TK-10; U-251; UACC-257; UACC-62; XF498.
What all share (assay): inhibition of tumour cell growth, NCI panel, 48 h

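Method: 48-hour compound exposure of cells in 96-well plates, five concentrations, linear interpolation of endpoints. The concentration for 50% growth inhibition is given as GI50.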 Activity calls are given as the source filed them. Cut-off read from the data, not from the text of the source: active = GI50 up to about 1.1 µM and inactive = higher.

As for `CC1=C[C@]2(O)C(=O)[C@H](C)C[C@H]3[C@@H](CC[C@@](C)(O)/C=C\2C1=O)C3(C)C`, the GI50 with CCRF-CEM was 24.8 µM (inactive); in the experiment with DLD-1 it was 17.5 µM (inactive); in the experiment with DMS-114, 22.6 µM (inactive); in the experiment on DMS-273 it was 22.4 µM (inactive); with HCT-15, 17 µM; with HOP-62, > 49.8 µM (inactive). Moreover, the GI50 in the experiment with LXFL 529 was 16.8 µM (inactive); in the experiment on MOLT-4, 17.9 µM (inactive); in the experiment on NCI-H226, 33.7 µM (inactive); in the experiment with OVCAR-3 it was 19.7 µM (inactive); in the experiment on SK-MEL-2, 17.9 µM (inactive); with SK-MEL-5, 21.6 µM (inactive). Also, the GI50 in the experiment on SN12C was 20.3 µM (inactive); in the experiment with TK-10, 32 µM (inactive); in the experiment on U-251, 21.7 µM (inactive); in the experiment on UACC-257, 17.4 µM (inactive); with UACC-62, 16 µM (inactive); with XF498 it was 16.3 µM (inactive).
In the case of `CCOC(=O)C(=O)Nc1cc(Cl)ccc1Cl`, the GI50 in the experiment with CCRF-CEM is > 100 µM (inactive); in the experiment on DLD-1 it was > 100 µM (inactive); in the experiment with DMS-114, > 100 µM (inactive); with DMS-273, > 100 µM (inactive); in the experiment with HCT-15 it was greater than 100 µM; with HOP-62, > 100 µM (inactive). In addition, the GI50 with LXFL 529, in the experiment with MOLT-4, in the experiment with NCI-H226, in the experiment on OVCAR-3, in the experiment on SK-MEL-2 and with SK-MEL-5 was > 100 µM (inactive) in each case. Further, the GI50 in the experiment on SN12C, with TK-10, in the experiment on U-251, in the experiment with UACC-257, in the experiment with UACC-62 and in the experiment with XF498 was > 100 µM (inactive) throughout.
As for `COc1ccc(/C(C=O)=C(\Cl)c2ccc(OC)c(OC)c2)cc1`, the GI50 with CCRF-CEM is 52.4 µM (inactive); with DLD-1, 15.6 µM (inactive); in the experiment with DMS-114 it was 81.3 µM (inactive); with DMS-273, 49.2 µM (inactive); in the experiment on HCT-15, greater than 100 µM; in the experiment on HOP-62, 36.8 µM (inactive). Further, the GI50 was > 100 µM (inactive) in the experiment with LXFL 529; 87.3 µM (inactive) in the experiment with MOLT-4; > 100 µM (inactive) with NCI-H226; > 100 µM (inactive) with OVCAR-3; > 100 µM (inactive) in the experiment on SK-MEL-2; > 100 µM (inactive) in the experiment with SK-MEL-5. Moreover, the GI50 was > 100 µM (inactive) in the experiment on SN12C; > 100 µM (inactive) in the experiment on TK-10; 32.1 µM (inactive) in the experiment with U-251; > 100 µM (inactive) with UACC-257; > 100 µM (inactive) in the experiment with UACC-62; 15.4 µM (inactive) in the experiment on XF498.
As to `N#CC1=C(N)n2c(s/c(=C\c3ccc(Cl)cc3)c2=O)=C(c2nc3ccccc3[nH]2)C1c1ccc(Cl)cc1` (stereo not given), the GI50 in the experiment with CCRF-CEM is 1.71 µM (inactive); in the experiment on DLD-1, 3.65 µM (inactive); in the experiment on DMS-114, 1.99 µM (inactive); with DMS-273, 2.12 µM (inactive); in the experiment on HCT-15, 2.06 µM; with HOP-62, 2.23 µM (inactive). The GI50 with LXFL 529 was 1.9 µM (inactive); in the experiment with MOLT-4, 1.47 µM (inactive); in the experiment with NCI-H226 it was 1.91 µM (inactive); in the experiment on OVCAR-3 it was 1.8 µM (inactive); with SK-MEL-2, 2.14 µM (inactive); in the experiment with SK-MEL-5, 3.02 µM (inactive). Also, the GI50 with SN12C is 2.19 µM (inactive); in the experiment with TK-10, 0.596 µM (active); in the experiment on U-251, 1.48 µM (inactive); in the experiment with UACC-257 it was 2.48 µM (inactive); in the experiment on UACC-62, 1.23 µM (inactive); with XF498, 1.63 µM (inactive).
Take `COc1cccc2c1C(=O)c1c(O)c3c(c(O)c1C2=O)C[C@@](O)(C(C)=O)CC3S(=O)(=O)O` (stereo not given in full): the GI50 in the experiment with CCRF-CEM was > 100 µM (inactive); in the experiment with DLD-1, > 100 µM (inactive); with DMS-114, > 100 µM (inactive); in the experiment on DMS-273 it was > 100 µM (inactive); in the experiment with HCT-15, greater than 100 µM; in the experiment with HOP-62 it was > 100 µM (inactive). Besides, the GI50 with LXFL 529, in the experiment with MOLT-4, in the experiment on NCI-H226, in the experiment with OVCAR-3, in the experiment with SK-MEL-2 and in the experiment with SK-MEL-5 was > 100 µM (inactive) throughout. For the same molecule, the GI50 in the experiment on SN12C, with TK-10, with U-251, in the experiment on UACC-257, in the experiment on UACC-62 and with XF498 was > 100 µM (inactive) in each case.
Consider `CCCCCCCCCCCCCCCCCCC1=C(O)C(=O)C=C(OC)C1=O`, for which the GI50 in the experiment on DLD-1 is 47.3 µM (inactive); with DMS-114 it was 21.7 µM (inactive); with DMS-273, 55.2 µM (inactive); with HCT-15, 29.5 µM; with HOP-62 it was 34.3 µM (inactive); with LXFL 529, 29.6 µM (inactive). The GI50 in the experiment with MOLT-4 was 21.1 µM (inactive); in the experiment on NCI-H226, 62.5 µM (inactive); in the experiment with OVCAR-3 it was 41.8 µM (inactive); in the experiment with SK-MEL-2, 26.5 µM (inactive); with SK-MEL-5, 40 µM (inactive); in the experiment on SN12C, 45.4 µM (inactive). Also, the GI50 in the experiment on TK-10 was 40.4 µM (inactive); in the experiment on U-251, 39 µM (inactive); in the experiment with UACC-257 it was 78.2 µM (inactive); with UACC-62 it was 27.8 µM (inactive); in the experiment on XF498, > 100 µM (inactive).
Take `N#CC(Nc1cccc(C(F)(F)F)c1)c1ccccc1C(F)(F)F` (stereo not given): the GI50 with CCRF-CEM is 18.4 µM (inactive); in the experiment on DLD-1 it was 15.9 µM (inactive); in the experiment with DMS-114, 8.91 µM (inactive); with DMS-273, 8.04 µM (inactive); with HCT-15 it was 7 µM; with HOP-62 it was 3.52 µM (inactive). The GI50 with LXFL 529 is 6.17 µM (inactive); with MOLT-4, 14.6 µM (inactive); in the experiment on NCI-H226, 15.9 µM (inactive); in the experiment with OVCAR-3 it was 6.52 µM (inactive); in the experiment on SK-MEL-2, 7.21 µM (inactive); in the experiment with SK-MEL-5, 18 µM (inactive). For the same molecule, the GI50 with SN12C was 7.4 µM (inactive); with TK-10, 14.7 µM (inactive); in the experiment on U-251, 16.9 µM (inactive); in the experiment on UACC-257 it was 14.6 µM (inactive); in the experiment with UACC-62, 16.2 µM (inactive); in the experiment on XF498, 3.94 µM (inactive).

(Values after ChEMBL document CHEMBL1201862, “PubChem BioAssay data set” (2004).)
